Test results published in patent publication US12521393B2, “Cytotoxicity targeting chimeras for CCR2-expressing cells” (GLAXOSMITHKLINE INTELLECTUAL PROPERTY DEVELOPMENT LIMITED, priority 2021, dated 2026).

Experiments:
[1] = biological target: anti-cotinine antibody (SEQ ID NO: 11/12, rabbit variable region with human IgG1 Fc DE mutation); test: SPR binding of anti-cotinine antibody to ARM compounds, Biacore T200, 37° C. (Example 202); details: SPR Biacore T200, 37° C., pH 7.4, antibody SEQ ID NO: 11/12 captured on protein A; Kd in molar
Outline: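 Antibody captured on a protein A chip; ARM compounds injected at 100 μL/min (200 s association, 2000 s dissociation), 3-fold 5-point series from 200 nM, at 37 °C in HEPES pH 7.4 buffer with 0.005% P20 and 1% DMSO. Double-referenced sensorgrams fit 1:1 for kon, koff, Kd (koff/kon), residence time (1/koff); pKd averaged across runs.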

[2] = system: CCR2 expressing cells (CD11b+Ly6c+Hi) in peripheral blood; test: In vivo depletion assay, flow cytometry of peripheral blood (Example 201); set-up: species or system human CCR2 knock-in mice (C57 background); details: hCCR2 knock-in mice, IV 0.1 mpk compound + 10 mpk anti-cotinine antibody (SEQ ID NO: 13/14), peripheral blood at 48 hr
Outline: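 Mice dosed with compound formulated in saline/DMSO/PBS, with anti-cotinine antibody (rabbit variable region, mouse IgG2a Fc) where required, pre-incubated 30 min at room temperature. Terminal peripheral blood RBC-lysed, Fc-blocked, stained for CD45, CD3, CD11b, Ly6C, human CCR2 and 7AAD; percent depletion of CD11b+Ly6c+Hi cells determined by flow cytometry.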

CC(C)N(C)[C@@H]1CC[C@H](N2CC[C@H](Nc3ncnc4ccc(C(F)(F)F)cc34)C2=O)[C@H](NC(=O)[C@H]2CC[C@H](NC(=O)CCOCCOCCOCCNC(=O)[C@H]3CC(=O)N(C)[C@@H]3c3cccnc3)CC2)C1 [Example 30, (2S,3S)-N-(2-(2-(2-(3-(((1R,4r)-4-(((1R,2S,5R)-5-(Isopropyl(methyl)amino)-2-((S)-2-oxo-3-((6-(trifluoromethyl)quinazolin-4-yl)amino)pyrrolidin-1-yl)cyclohexyl)carbamoyl)cyclohexyl)amino)-3-oxopropoxy)ethoxy)ethoxy)ethyl)-1-methyl-5-oxo-2-(pyridin-3-yl)pyrrolidine-3-carboxamide]
pKd of Antibody for ARM Compound of Formula (I) [1]: 9.3155 | % Depletion of CCR2 expressing cells [2]: 34.88%

CCN1C(=O)C[C@H](C(=O)NCCOCCOCCOCCC(=O)N[C@H]2CC[C@@H](C(=O)N[C@@H]3C[C@H](N(C)C(C)C)CC[C@@H]3N3CC[C@H](Nc4ncnc5ccc(C(F)(F)F)cc45)C3=O)CC2)[C@H]1c1cccnc1 [Example 34, (2S,3S)-1-ethyl-N-(2-(2-(2-(3-((cis-4-(((1R,2S,5R)-5-(isopropyl(methyl)amino)-2-((S)-2-oxo-3-((6-(trifluoromethyl)quinazolin-4-yl)amino)pyrrolidin-1-yl)cyclohexyl)carbamoyl)cyclohexyl)amino)-3-oxopropoxy)ethoxy)ethoxy)ethyl)-5-oxo-2-(pyridin-3-yl)pyrrolidine-3-carboxamide]
pKd of Antibody for ARM Compound of Formula (I) [1]: 9.933 | % Depletion of CCR2 expressing cells [2]: 95%

CCN1C(=O)C[C@H](C(=O)NCCOCCOCCOCCC(=O)N[C@H]2CC[C@@H](C(=O)N[C@@H]3C[C@H](NC(C)(C)C)CC[C@@H]3N3CC[C@H](Nc4ncnc5ccc(C(F)(F)F)cc45)C3=O)CC2)[C@H]1c1cccnc1 [Example 35, (2S,3S)-N-(2-(2-(2-(3-(((1S,4s)-4-(((1R,2S,5R)-5-(tert-butylamino)-2-((S)-2-oxo-3-((6-(trifluoromethyl)quinazolin-4-yl)amino)pyrrolidin-1-yl)cyclohexyl)carbamoyl)cyclohexyl)amino)-3-oxopropoxy)ethoxy)ethoxy)ethyl)-1-ethyl-5-oxo-2-(pyridin-3-yl)pyrrolidine-3-carboxamide]
pKd of Antibody for ARM Compound of Formula (I) [1]: 9.785 | % Depletion of CCR2 expressing cells [2]: 88.81%

CN1C(=O)C[C@H](C(=O)NCCOCCOCCOCCOCCOCCC(=O)N[C@@H]2C[C@H](NC(C)(C)C)CC[C@@H]2N2CC[C@H](Nc3ncnc4ccc(C(F)(F)F)cc34)C2=O)[C@H]1c1cccnc1 [Example 37, (2S,3S)-N-(18-(((1R,2S,5R)-5-(tert-Butylamino)-2-((S)-2-oxo-3-((6-(trifluoromethyl)quinazolin-4-yl)amino)pyrrolidin-1-yl)cyclohexyl)amino)-18-oxo-3,6,9,12,15-pentaoxaoctadecyl)-1-methyl-5-oxo-2-(pyridin-3-yl)pyrrolidine-3-carboxamide]
pKd of Antibody for ARM Compound of Formula (I) [1]: 9.7475 | % Depletion of CCR2 expressing cells [2]: 75%

CN1C(=O)C[C@H](C(=O)NCCOCCOCCOCCOCCOCCOCCC(=O)N[C@@H]2C[C@H](NC(C)(C)C)CC[C@@H]2N2CC[C@H](Nc3ncnc4ccc(C(F)(F)F)cc34)C2=O)[C@H]1c1cccnc1 [Example 38, (2S,3S)-N-(21-(((1R,2S,5R)-5-(tert-Butylamino)-2-((S)-2-oxo-3-((6-(trifluoromethyl)quinazolin-4-yl)amino)pyrrolidin-1-yl)cyclohexyl)amino)-21-oxo-3,6,9,12,15,18-hexaoxahenicosyl)-1-methyl-5-oxo-2-(pyridin-3-yl)pyrrolidine-3-carboxamide]
pKd of Antibody for ARM Compound of Formula (I) [1]: 9.611 | % Depletion of CCR2 expressing cells [2]: 84.55%

CC(C)N(C)[C@@H]1CC[C@H](N2CC[C@H](Nc3ncnc4ccc(C(F)(F)F)cc34)C2=O)[C@H](NC(=O)C2CCC(NC(=O)CCOCCNC(=O)CCOCCNC(=O)[C@H]3CC(=O)N(C)[C@@H]3c3cccnc3)CC2)C1 (stereo partly drawn) [Example 48, (2S,3S)-N-(2-(3-((2-(3-(((1R,4r)-4-(((1R,2S,5R)-5-(Isopropyl(methyl)amino)-2-((S)-2-oxo-3-((6-(trifluoromethyl)quinazolin-4-yl)amino)pyrrolidin-1-yl)cyclohexyl)carbamoyl)cyclohexyl)amino)-3-oxopropoxy)ethyl)amino)-3-oxopropoxy)ethyl)-1-methyl-5-oxo-2-(pyridin-3-yl)pyrrolidine-3-carboxamide]
pKd of Antibody for ARM Compound of Formula (I) [1]: 8.975 | % Depletion of CCR2 expressing cells [2]: 89%

CC(C)N(C)[C@@H]1CC[C@H](N2CC[C@H](Nc3ncnc4ccc(C(F)(F)F)cc34)C2=O)[C@H](NC(=O)[C@H]2C[C@@H](NC(=O)CCOCCOCCNC(=O)CCNC(=O)[C@H]3CC(=O)N(C)[C@@H]3c3cccnc3)C2)C1 [Example 49, (2S,3S)-N-(3-((2-(2-(3-(((1S,3s)-3-(((1R,2S,5R)-5-(Isopropyl(methyl)amino)-2-((S)-2-oxo-3-((6-(trifluoromethyl)quinazolin-4-yl)amino)pyrrolidin-1-yl)cyclohexyl)carbamoyl)cyclobutyl)amino)-3-oxopropoxy)ethoxy)ethyl)amino)-3-oxopropyl)-1-methyl-5-oxo-2-(pyridin-3-yl)pyrrolidine-3-carboxamide]
pKd of Antibody for ARM Compound of Formula (I) [1]: 9.191 | % Depletion of CCR2 expressing cells [2]: 85.84%

CC(C)N(C)[C@@H]1CC[C@H](N2CC[C@H](Nc3ncnc4ccc(C(F)(F)F)cc34)C2=O)[C@H](NC(=O)[C@H]2CC[C@@H](NC(=O)CCCO[C@H]3CC[C@H](NC(=O)CCNC(=O)[C@@H]4CC(=O)N(C)[C@H]4c4cccnc4)CC3)CC2)C1 [Example 52, (2S,3S)-N-(3-(((1R,4S)-4-(4-(((1S,4S)-4-(((1R,2S,5R)-5-(Isopropyl(methyl)amino)-2-((S)-2-oxo-3-((6-(trifluoromethyl)quinazolin-4-yl)amino)pyrrolidin-1-yl)cyclohexyl)carbamoyl)cyclohexyl)amino)-4-oxobutoxy)cyclohexyl)amino)-3-oxopropyl)-1-methyl-5-oxo-2-(pyridin-3-yl)pyrrolidine-3-carboxamide]
pKd of Antibody for ARM Compound of Formula (I) [1]: 9.2545 | % Depletion of CCR2 expressing cells [2]: 79.18%

CC(C)N(C)[C@@H]1CC[C@H](N2CC[C@H](Nc3ncnc4ccc(C(F)(F)F)cc34)C2=O)[C@H](NC(=O)[C@H]2CC[C@H](NC(=O)CCOC[C@H]3CC[C@H](COCCNC(=O)[C@H]4CC(=O)N(C)[C@@H]4c4cccnc4)CC3)CC2)C1 [Example 53, (2S,3S)-N-(2-(((1R,4S)-4-((3-(((1R,4R)-4-(((1R,2S,5R)-5-(Isopropyl(methyl)amino)-2-((S)-2-oxo-3-((6-(trifluoromethyl)quinazolin-4-yl)amino)pyrrolidin-1-yl)cyclohexyl)carbamoyl)cyclohexyl)amino)-3-oxopropoxy)methyl)cyclohexyl)methoxy)ethyl)-1-methyl-5-oxo-2-(pyridin-3-yl)pyrrolidine-3-carboxamide]
pKd of Antibody for ARM Compound of Formula (I) [1]: 9.531 | % Depletion of CCR2 expressing cells [2]: 68.42%

CC(C)N(C)[C@@H]1CC[C@H](N2CC[C@H](Nc3ncnc4ccc(C(F)(F)F)cc34)C2=O)[C@H](NC(=O)[C@H]2CC[C@H](NC(=O)CCCOC[C@H]3CC[C@@H](COCCNC(=O)[C@H]4CC(=O)N(C)[C@@H]4c4cccnc4)CC3)CC2)C1 [Example 57, (2S,3S)-N-(2-(((1S,4R)-4-((4-(((1R,4R)-4-(((1R,2S,5R)-5-(Isopropyl(methyl)amino)-2-((S)-2-oxo-3-((6-(trifluoromethyl)quinazolin-4-yl)amino)pyrrolidin-1-yl)cyclohexyl)carbamoyl)cyclohexyl)amino)-4-oxobutoxy)methyl)cyclohexyl)methoxy)ethyl)-1-methyl-5-oxo-2-(pyridin-3-yl)pyrrolidine-3-carboxamide]
pKd of Antibody for ARM Compound of Formula (I) [1]: 9.685 | % Depletion of CCR2 expressing cells [2]: 77%

CC(C)N(C)[C@@H]1CC[C@H](N2CC[C@H](Nc3ncnc4ccc(C(F)(F)F)cc34)C2=O)[C@H](NC(=O)[C@H]2CC[C@@H](CC(=O)CCCOC[C@H]3CC[C@H](COCCNC(=O)[C@H]4CC(=O)N(C)[C@@H]4c4cccnc4)CC3)CC2)C1 [Example 60, (2S,3S)-N-(2-(((1R,4S)-4-(((5-((1S,4S)-4-(((1R,2S,5R)-5-(Isopropyl(methyl)amino)-2-((S)-2-oxo-3-((6-(trifluoromethyl)quinazolin-4-yl)amino)pyrrolidin-1-yl)cyclohexyl)carbamoyl)cyclohexyl)-4-oxopentyl)oxy)methyl)cyclohexyl)methoxy)ethyl)-1-methyl-5-oxo-2-(pyridin-3-yl)pyrrolidine-3-carboxamide]
pKd of Antibody for ARM Compound of Formula (I) [1]: 9.4635 | % Depletion of CCR2 expressing cells [2]: 90%

CC(C)N(C)[C@@H]1CC[C@H](N2CC[C@H](Nc3ncnc4ccc(C(F)(F)F)cc34)C2=O)[C@H](NC(=O)CCNC(=O)CCCOC[C@H]2CC[C@@H](COCCNC(=O)[C@H]3CC(=O)N(C)[C@@H]3c3cccnc3)CC2)C1 [Example 62, (2S,3S)-N-(2-(((1S,4R)-4-((4-((3-(((1R,2S,5R)-5-(Isopropyl(methyl)amino)-2-((S)-2-oxo-3-((6-(trifluoromethyl)quinazolin-4-yl)amino)pyrrrolidin-1-yl)cyclohexyl)amino)-3-oxopropyl)amino)-4-oxobutoxy)methyl)cyclohexyl)methoxy)ethyl)-1-methyl-5-oxo-2-(pyridin-3-yl)pyrrolidine-3-carboxamide]
pKd of Antibody for ARM Compound of Formula (I) [1]: 9.6305 | % Depletion of CCR2 expressing cells [2]: 56%
